Data from article PMC7616682 (Journal of biological inorganic chemistry : JBIC : a …, 2024).
Values after ≈ are worked out from the molar mass of the structure shown. Where two headings read alike, the source gives them in different places.

Key:
S. aureus NTCC 12973 = experiment: MIC broth microdilution assay; format: cell-based, Staphylococcus aureus; details: 24 h, read-out: MIC S. aureus (Gram positive)
Description: (§1) Antibacterial activity assay […]
(§2) MIC broth microdilution assay
(§3) 3 × 125 mL Erlenmeyer flasks, each filled with 12.5 mL MHBII, were inoculated with three different colonies of S. aureus NTCC 12973. 3 × 125 mL Erlenmeyer flasks, each filled with 12.5 mL BHI broth, were inoculated with three different colonies of E. faecium ATCC 19434. The cultures were incubated at 37 °C with shaking at 180 rpm for 16 h.
(§4) OD600 of ~2.5. The suspensions of S. aureus cultures were diluted 100-fold with MHBII while the E. faecium cultures were diluted 4-fold. The resultant suspensions were incubated for a further 3 h at 37 °C with shaking. […]
(§5) after 3 h. Stock solutions of the title compounds were prepared in the requisite broth from 100 mM stocks in DMSO with the exception of carbenicillin, which was from a 100 mM stock in water and vancomycin from a 10 mM stock in DMSO. 15 × 96 well plates were primed with concentration gradients of the analytes and carbenicillin as shown in Figure S60 for S. aureus. 15 × 96 well plates were primed with the concentration […]
(§6) μL per well of the relevant bacterial culture in the requisite broth to 100 μL per well.
Plates were then incubated at 37 °C for 24 h before reading OD600 on a BMG Clariostar […]
Figure S50: Dose response profiles of the title compounds against S. aureus.
(§7) (1 picture or pasted object on this page, not shown here)

[1] = system: Psuedomonas aeruginosa ATCC BAA-47; experiment: Rapid screen broth microdilution assay; format: cell-based, Pseudomonas aeruginosa; details: rapid screen without replicates, 24 h, read-out: MIC P. aeruginosa (Gram negative)
Description: (§8) Antibacterial activity assay
(§9) Rapid screen broth microdilution assay
(§10) 5 × 125 mL Erlenmeyer flasks, each filled with 12.5 mL Mueller Hinton broth II (MHBII), were inoculated with Klebsiella pneumoniae ATCC 13883, Acinetobacter baumanii ATCC 17978, Psuedomonas aeruginosa ATCC BAA-47, Staphylococcus aureus […]
(§11) with 12.5 mL BHI broth was inoculated with Enterococcus faecium ATCC 19434. The cultures were incubated at 37 °C with shaking at 180 rpm for 16 h. The suspensions were diluted 100-fold with the requisite broth (E. faecium: 4-fold) and the resultant suspensions incubated for a further 3 h at 37 °C with shaking. […]
(§12) of 0.8–1.2 after 3 h. Stock solutions of the title compounds were prepared in the requisite broth from 100 mM stocks in DMSO with the exceptions of carbenicillin, which was from a 100 mM stock in water and ciprofloxacin from a 10 mM stock in DMSO.
(§13) 6 × 96 well plates were primed with a concentration gradient of the analytes from 200 to 3.13 µM, carbenicillin from 200 to 3.13 µM and ciprofloxacin from 10 to 0.16 µM. The cells were diluted 100-fold to an OD600 of 0.01. All plates were then inoculated with 50 μL per well bacterial culture in the requisite broth to 100 μL per well. Plates were then incubated at 37 °C for 24 h before reading OD600 on a BMG Clariostar platereader. […]

[2] = system: HCT116 (colorectal cancer) cells; experiment: Cell viability (DAPI nuclei count); format: cell-based, human
Description: (§14) To determine the relative viability, after incubation cells were fixed and stained with DAPI and the number of nuclei per well determined using a CeligoTM Image Cytometer (Figure S52 to S60). […] page 43: Cell viability studies Compound cytotoxicity was tested simultaneously on five representative cell lines […] All cells were cultured in DMEM Glutamax without pyruvate with 10% fetal bovine serum and 1% penicillin/streptomycin (Gibco). Cells were incubated with the compound for 24 or 48 h […] The tested concentration range for each compound was […] The required […] Greiner CELLSTAR® microplates) using the Echo 550 Acoustic Liquid Handler and wells were back-filled with DMSO when required to keep a final DMSO concentration […] Next, 50 μL of cell solution was added to the compound-containing wells using the Integra® […] Bulk dispenser. Cell solutions were prepared to get 5000 […] cells per well for hTERT RPE-1, and 5000 (24 h)/2500 (48 h) cells per well for BEAS- […] After incubation, cells were fixed with 4% PFA (Merck, […]), permeabilized with […] DAPI (Merck, 10236276001). Viable cells were counted using 377 nm excitation and 447 nm emission filters on the CeligoTM Image Cytometer. The number of nuclei per well was determined using the Direct Cell Count analysis from the CeligoPro Sofware […] All conditions were performed in triplicate. Staurosporine (Cambridge Bioscience, s7600) was used as a positive control and DMSO only as a negative control. The percentage of cell viability was normalized to the DMSO-only control and […] logistic curve with the scipy.optimize.curve_fit function. S43

[3] = system: BEAS2B (non-cancer lung) cells; experiment: Cell viability (DAPI nuclei count); format: cell-based, human; details: 48 h
Description: as §14

[4] = system: RPE1 (retinal pigment epithelial cells); experiment: Cell viability (DAPI nuclei count); format: cell-based, human
Description: as §14

[5] = system: HeLa (cervical cancer) cells; experiment: Cell viability (DAPI nuclei count); format: cell-based, human; details: 48 h
Description: as §14

[6] = system: HaCat (non-cancer skin) cells; experiment: Cell viability (DAPI nuclei count); format: cell-based, human; details: 48 h
Description: as §14

[7] = system: BEASB2, HaCat, RPE1, HCT116 and HeLa cell lines; experiment: Cell viability, summary over all cell lines studied; format: cell-based, human; details: Homo sapiens; summary of Table 3, 48 h; read-out: IC50 values, range over all cell lines studied
Description: as §14

streptavidin = streptavidin (Streptomyces avidinii, UniProt P22629); experiment: Isothermal titration calorimetry (ITC) with streptavidin; format: binding; details: 25 °C, 10 mM HEPES + 2% DMSO; for Kd: read-out: dissociation constant (Kd) to streptavidin
Description: Isothermal titration calorimetry
Streptavidin (20 µM in 10 mM HEPES plus 2% DMSO) was titrated stepwise with 2 uL injections of the compound (200 µM in 10 mM HEPES + 2% DMSO) at 25 °C, using a Malvern MicroCal PEAQ-ITC. Raw thermograms (top panels) and the binding isotherm from the integrated thermogram (bottom panels) were fit using the One Set of Sites model in the MicroCal PEAQ-ITC analysis software. Circles indicate the integrated heat, and the curve represents the best fit.
Figure S46: Isothermal titration calorimetry measurements of 5.
as §7

[8] = system: Acinetobacter baumanii ATCC 17978; experiment: Rapid screen broth microdilution assay; format: cell-based, Acinetobacter baumannii; details: rapid screen without replicates, 24 h, read-out: MIC A. baumannii (Gram negative)
Description: as §8, §9, §10, §11, §12, §13

[9] = LogP by shake-flask method (n-octanol/phosphate buffer)
Description: using the "shake-flask" method.[6],[7] In short, phosphate buffer (50 mM, pH 7.4) was saturated with n-octanol by shaking a 1:1 mixture of both solution on a laboratory shaker for 72 h, after which the phases were separated. Stock solutions of each complex were then prepared in dimethylsulfoxide at a concentration of 10 mM. […]
(§15) solution with a concentration of 100 µM. From this solution, 1000 µL were transferred into an Eppendorf tube and mixed with 1000 µL of n-octanol. After shaking for 15 min and centrifugation (5 min, 6000 rpm), the two phases were carefully separated, and the contact layer discarded. Then, the absorbance of each phase was recorded with an Agilent 8453 UV/Vis spectrometer.
as §15, with “2 mL solution with” for “solution with”, “1000 µL phosphate buffer. After shaking” for “1000 µL of n-octanol. After shaking”, “rpm), the phases were” for “rpm), the two phases were”

[10] = system: Klebsiella pneumoniae ATCC 13883; experiment: Rapid screen broth microdilution assay; format: cell-based; details: rapid screen without replicates, 24 h, read-out: MIC K. pnuemoniae (Gram negative)
Description: as §8, §9, §10, §11, §12, §13

[11] = system: Escherichia coli K12 ATCC 10798; experiment: Rapid screen broth microdilution assay; format: cell-based; details: rapid screen without replicates, 24 h, read-out: MIC E. coli (Gram negative)
Description: as §8, §9, §10, §11, §12, §13

E. faecium ATCC 19434 = experiment: MIC broth microdilution assay; format: cell-based, Enterococcus faecium; details: 24 h, read-out: MIC E. faecium (Gram positive)
Description: as §1, §2, §3, §4, §5, §6

avidin [12] = target: T1, avidin (Gallus gallus, UniProt P02701); experiment: HABA/avidin assay; format: binding; details: titration of HABA/avidin mixture, absorbance at 500 nm
T1 construct: purchased SIGMA-ALDRICH A9275
Description: properties towards avidin using the HABA assay.[8] A mixture of avidin (6.8 μM, SIGMA-ALDRICH: A9275) and 4'-hydroxyazobenzene-2-carboxylic acid (HABA, 0.3 mM, SIGMA-ALDRICH: H5126) was dissolved in 50 mM sodium phosphate buffer (20 mL, pH 7.4) and allowed to equilibrate for 24 h at 4 °C. Stock solutions of each compound were prepared in dimethyl sulfoxide at a concentration of 1.1 mM. The […]
to the prepared avidin/HABA mixture (1 mL) at room temperature at 5–10 min intervals […]
absorbance then recorded with an Agilent 8453 UV/Vis spectrometer. The formation of the adduct was indicated by a decrease in the absorbance at 500 nm due to the displacement of HABA from the avidin. By plotting -ΔA500 nm vs. the molar concentration ratio c(compound):c(avidin), the binding stoichiometry of the compound to avidin was determined.

avidin [13] = target: T1, avidin; details: cited from earlier work
[14] = shake-flask method, n-octanol/phosphate buffer 50 mM pH 7.4

streptavidin, sequence (P22629 25-183, species assumed): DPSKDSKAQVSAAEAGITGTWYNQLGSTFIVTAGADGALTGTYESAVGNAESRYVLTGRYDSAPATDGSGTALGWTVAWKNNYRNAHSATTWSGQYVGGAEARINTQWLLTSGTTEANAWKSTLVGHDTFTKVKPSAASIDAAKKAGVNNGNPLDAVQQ
T1 sequence (P02701 25-152): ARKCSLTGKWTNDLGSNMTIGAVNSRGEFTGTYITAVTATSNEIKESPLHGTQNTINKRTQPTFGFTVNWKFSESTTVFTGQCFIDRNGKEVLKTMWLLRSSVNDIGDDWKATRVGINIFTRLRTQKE

| SMILES | Kd (streptavidin) [µM] | LogP [9, 14] | MIC (S. aureus NTCC 12973; three colonies) [µM] | MIC [1] [µM] | IC50 ([2]; 48 h) [µM] | IC50 ([4]; 48 h) [µM] | IC50 [5] [µM] | IC50 [6] [µM] | MIC [8] [µM] | MIC [10] [µM] | MIC [11] [µM] | MIC (E. faecium ATCC 19434; three colonies) [µM] | further results |
| --- | --- | --- | --- | --- | --- | --- | --- | --- | --- | --- | --- | --- | --- |
| O=C(C#Cc1ccccc1)CCCC[C@@H]1SC[C@@H]2NC(=O)N[C@@H]21 (stereo in doubt) [Compound 5, 7-[(3aS,4S,6aR)-2-oxohexahydro-1H-thieno-[3,4-d]imidazol-4-yl]-1-phenyl-1-heptyn-3-one] | < 0.001 | highly lipophilic^a | – | – | – | – | – | – | – | – | – | – | MIC (S. aureus NTCC 12973; Staphylococcus aureus, NTCC12973, three colonies): > 200 µM; MIC ([1]; Pseudomonas aeruginosa, ATCCBAA47): > 200 µM; IC50 ([2]; Homo sapiens, HCT-116, 48 h): 4 µM; IC50 ([3]; Homo sapiens, BEAS-2B): 3.6 µM; IC50 ([4]; Homo sapiens, RPE-1, 48 h): 2.4 µM; IC50 ([5]; Homo sapiens, HeLa): 3.3 µM; IC50 ([6]; Homo sapiens, HaCaT): 3.3 µM; IC50 [7]: 2 to 4 µM; MIC ([8]; Acinetobacter baumannii, ATCC17978): > 200 µM; MIC ([10]; Klebsiella pneumoniae, ATCC13883): > 200 µM; MIC ([11]; Escherichia coli, ATCC10798): > 200 µM; MIC (E. faecium ATCC 19434; Enterococcus faecium, ATCC19434, three colonies): 200 µM (≈ 65.7 µg/mL) |
| COC(=O)c1n[n]([Pt+])nc1C(=O)OC.F[P-](F)(F)(F)(F)F.c1ccc(-c2cccc(-c3ccccn3)n2)nc1 [Compound 15] | – | – | >200 | >200 | 6 | 4.9 | 15.9 | 15.4 | >200 | >200 | >200 | >200 | avidin binding in HABA assay (result in words) (avidin [12]): non-specific protein binding; dissociation constant (Kd) to streptavidin (streptavidin): did not bind to streptavidin; LogP ([9]; pH 7.4): -1.80 |
| F[P-](F)(F)(F)(F)F.O=C1N[C@H]2[C@H](CS[C@H]2CCCCC(=O)c2n[n]([Pt+][c]3cccc(-c4cccc(-c5ccccn5)n4)n3)nc2-c2ccccc2)N1 [Compound 16, [Pt(triazolatoC6H5,biotin)(terpy)]PF6] | 0.13 | -0.78 | >200 | >200 | 6.8 | 5.2 | 13.3 | 14.1 | >200 | >200 | >200 | >200 | IC50 [3]: 8.3 µM |
| O=C(O)c1ccccc1N=Nc1ccc(O)cc1 [HABA, 4'-hydroxyazobenzene-2-carboxylic acid] | – | – | – | – | – | – | – | – | – | – | – | – | Kd (avidin [13]): 6 µM |
